Data from patent US4742047A, “Semi-synthetic peptide antibiotics” (Bristol-Myers Company, priority 1986, dated 1988).

Columns and labels:
P388 leukemia = assay: Antitumor effect against in vivo murine transplantable P388 leukemia; set-up: species or system mice
Protocol: (§1) Antitumor activity of representative compounds of the present invention was determined using in vivo murine transplantable P388 leukemia and B16 melanoma models.
P388 leukemia: female CDF1 and male BDF1 mice were inoculated by intraperitoneal injection of 0.8 ml diluted ascitic fluid containing 10^6 cells.
(§2) Test materials were dissolved in 0.9% saline containing 10% dimethyl sulfoxide and graded doses of them were administered to mice intraperitoneally 24 hrs after tumor implantation. Two dosing schedules were used for the p388 leukemia experiment: once daily on day 1 through day 3 (QD 1→3); and once daily on day 1 through day 9 (QD 1→9). The QD 1→9 schedule was used for the B16 melanoma experiment.
(§3) Antitumor activity is evaluated as the increase in mediam survival time (MST) of treated (T) and control (C) animals for various dosage regimens expressed as a percentage ratio (T/C %=MST of treated.div.MST of control×100). For both in vivo P388 leukemia and in vivo B16 melanoma models, values for percentage ratios of 125 and above indicate significant antitumor effect.

B16 melanoma = assay: Antitumor effect against in vivo murine B16 melanoma; set-up: species or system mice; conditions: QD 1→9 ip
Protocol: as §1
B16 melanoma; male BDF1 mice were implanted with 0.5 ml of a 10% tumor brei intraperitoneally.
as §2, §3

ddy mice = conditions: single intraperitoneal administration
Protocol: The acute toxicity for compounds of Examples 1, 2, and 3 was determined in ddy mice by single intraperitoneal administration.

Compound: CCCCCCCCCCCCCCC(O)C(=O)N[C@H](C(=O)NC1CC(O)CCNC(=O)/C=C/C(C)NC1=O)[C@@H](C)O (stereo partly drawn) [Example 5, 2-Hydroxy-hexadecanoyl-III]
- MST (% T/C) (P388 leukemia; 1 mg/kg/day, QD 1→3 ip): 118 % T/C
- MST (% T/C) (P388 leukemia; 3 mg/kg/day, QD 1→3 ip): 132 % T/C
- MST (% T/C) (P388 leukemia; 10 mg/kg/day, QD 1→3 ip): 132 % T/C

Compound: CCCCCCCC=CC=CC(=O)NC(C(=O)NC1CC(O)CCNC(=O)C=CC(C)NC1=O)C(C)O (stereo not drawn) [BU-2867T A, reference compound]
- MST (% T/C) (B16 melanoma; 1 mg/kg/day): 116 % T/C
- MST (% T/C) (B16 melanoma; 2 mg/kg/day): Tox
- MST (% T/C) (B16 melanoma; .13 mg/kg/day): 97 % T/C
- MST (% T/C) (B16 melanoma; .25 mg/kg/day): 100 % T/C
- MST (% T/C) (B16 melanoma; .5 mg/kg/day): 113 % T/C
- MST (% T/C) (P388 leukemia; 0.13 mg/kg/day, QD 1→9 ip): 130 % T/C
- MST (% T/C) (P388 leukemia; 0.25 mg/kg/day, QD 1→9 ip): 150 % T/C
- MST (% T/C) (P388 leukemia; 0.5 mg/kg/day, QD 1→9 ip): 155 % T/C
- MST (% T/C) (P388 leukemia; 0.63 mg/kg/day, QD 1→9 ip): 110 % T/C
- MST (% T/C) (P388 leukemia; 1 mg/kg/day, QD 1→3 ip): 145 % T/C
- MST (% T/C) (P388 leukemia; 1 mg/kg/day, QD 1→9 ip): 190 % T/C
- MST (% T/C) (P388 leukemia; 2 mg/kg/day, QD 1→9 ip): Tox
- MST (% T/C) (P388 leukemia; 3 mg/kg/day, QD 1→3 ip): Tox
- MST (% T/C) (P388 leukemia; .3 mg/kg/day, QD 1→3 ip): 130 % T/C

Compound: CCCCCC=CCCC=CC=CC(=O)NC(C(=O)NC1CC(O)CCNC(=O)C=CC(C)NC1=O)C(C)O (stereo not drawn) [BU-2867T B, reference compound]
- MST (% T/C) (B16 melanoma; 1 mg/kg/day): 126 % T/C
- MST (% T/C) (B16 melanoma; 2 mg/kg/day): Tox
- MST (% T/C) (B16 melanoma; .13 mg/kg/day): 108 % T/C
- MST (% T/C) (B16 melanoma; .25 mg/kg/day): 111 % T/C
- MST (% T/C) (B16 melanoma; .5 mg/kg/day): 118 % T/C
- MST (% T/C) (P388 leukemia; 0.13 mg/kg/day, QD 1→9 ip): 125 % T/C
- MST (% T/C) (P388 leukemia; 0.25 mg/kg/day, QD 1→9 ip): 130 % T/C
- MST (% T/C) (P388 leukemia; 0.5 mg/kg/day, QD 1→9 ip): 145 % T/C
- MST (% T/C) (P388 leukemia; 0.63 mg/kg/day, QD 1→9 ip): 130 % T/C
- MST (% T/C) (P388 leukemia; 1 mg/kg/day, QD 1→9 ip): 170 % T/C
- MST (% T/C) (P388 leukemia; 2 mg/kg/day, QD 1→9 ip): 180 % T/C
- MST (% T/C) (P388 leukemia; 4 mg/kg/day, QD 1→9 ip): Tox

Compound: CCCCCCCCCC(=O)N[C@H](C(=O)NC1CC(O)CCNC(=O)/C=C/C(C)NC1=O)[C@@H](C)O (stereo partly drawn) [Example 2, n-Decanoyl-III]
- LD50 (ddy mice): 50 mg/kg
- MST (% T/C) (P388 leukemia; 0.13 mg/kg/day, QD 1→9 ip): 109 % T/C
- MST (% T/C) (P388 leukemia; 0.25 mg/kg/day, QD 1→9 ip): 123 % T/C
- MST (% T/C) (P388 leukemia; 0.5 mg/kg/day, QD 1→9 ip): 123 % T/C
- MST (% T/C) (P388 leukemia; 1 mg/kg/day, QD 1→3 ip): 123 % T/C
- MST (% T/C) (P388 leukemia; 1 mg/kg/day, QD 1→9 ip): 127 % T/C
- MST (% T/C) (P388 leukemia; 2 mg/kg/day, QD 1→9 ip): 145 % T/C
- MST (% T/C) (P388 leukemia; 3 mg/kg/day, QD 1→3 ip): 127 % T/C
- MST (% T/C) (P388 leukemia; 4 mg/kg/day, QD 1→9 ip): 155 % T/C
- MST (% T/C) (P388 leukemia; 10 mg/kg/day, QD 1→3 ip): 64 % T/C

Compound: CCCCCCCCCCCCCCCC(=O)N[C@H](C(=O)NC1CC(O)CCNC(=O)/C=C/C(C)NC1=O)[C@@H](C)O (stereo partly drawn) [Example 10, Palmitoyl-L-Threonyl-II]
- MST (% T/C) (P388 leukemia; 1 mg/kg/day, QD 1→3 ip): 114 % T/C
- MST (% T/C) (P388 leukemia; 3 mg/kg/day, QD 1→3 ip): 119 % T/C
- MST (% T/C) (P388 leukemia; 10 mg/kg/day, QD 1→3 ip): 138 % T/C

Compound: CCCCCCCCOc1ccc(C(=O)N[C@H](C(=O)NC2CC(O)CCNC(=O)/C=C/C(C)NC2=O)[C@@H](C)O)cc1 (stereo partly drawn) [Example 6, p-n-Octyloxybenzoyl-III]
- MST (% T/C) (P388 leukemia; 0.13 mg/kg/day, QD 1→9 ip): 140 % T/C
- MST (% T/C) (P388 leukemia; 0.25 mg/kg/day, QD 1→9 ip): 150 % T/C
- MST (% T/C) (P388 leukemia; 0.5 mg/kg/day, QD 1→9 ip): 155 % T/C
- MST (% T/C) (P388 leukemia; 0.63 mg/kg/day, QD 1→9 ip): 120 % T/C
- MST (% T/C) (P388 leukemia; 1 mg/kg/day, QD 1→3 ip): 150 % T/C
- MST (% T/C) (P388 leukemia; 1 mg/kg/day, QD 1→9 ip): Tox
- MST (% T/C) (P388 leukemia; 3 mg/kg/day, QD 1→3 ip): Tox
- MST (% T/C) (P388 leukemia; .3 mg/kg/day, QD 1→3 ip): 125 % T/C

Compound: CCCCCCCCCC=CC=CC(=O)NC(C(=O)NC1CC(O)CCNC(=O)C=CC(C)NC1=O)C(C)O (stereo not drawn) [BU-2867T C, reference compound]
- MST (% T/C) (B16 melanoma; 1 mg/kg/day): 113 % T/C
- MST (% T/C) (B16 melanoma; 2 mg/kg/day): 132 % T/C
- MST (% T/C) (B16 melanoma; 4 mg/kg/day): Tox
- MST (% T/C) (B16 melanoma; .13 mg/kg/day): 103 % T/C
- MST (% T/C) (B16 melanoma; .25 mg/kg/day): 103 % T/C
- MST (% T/C) (B16 melanoma; .5 mg/kg/day): 103 % T/C
- MST (% T/C) (P388 leukemia; 0.13 mg/kg/day, QD 1→9 ip): 130 % T/C
- MST (% T/C) (P388 leukemia; 0.25 mg/kg/day, QD 1→9 ip): 160 % T/C
- MST (% T/C) (P388 leukemia; 0.5 mg/kg/day, QD 1→9 ip): 155 % T/C
- MST (% T/C) (P388 leukemia; 0.63 mg/kg/day, QD 1→9 ip): 115 % T/C
- MST (% T/C) (P388 leukemia; 1 mg/kg/day, QD 1→3 ip): 124 % T/C
- MST (% T/C) (P388 leukemia; 1 mg/kg/day, QD 1→9 ip): 170 % T/C
- MST (% T/C) (P388 leukemia; 2 mg/kg/day, QD 1→9 ip): 205 % T/C
- MST (% T/C) (P388 leukemia; 3 mg/kg/day, QD 1→3 ip): 129 % T/C
- MST (% T/C) (P388 leukemia; 4 mg/kg/day, QD 1→9 ip): 65 % T/C
- MST (% T/C) (P388 leukemia; 10 mg/kg/day, QD 1→3 ip): 57 % T/C

Compound: CCCCCCCCCCCC(=O)N[C@H](C(=O)NC1CC(O)CCNC(=O)/C=C/C(C)NC1=O)[C@@H](C)O (stereo partly drawn) [Example 1, n-Dodecanoyl-III]
- LD50 (ddy mice): 27 mg/kg
- MST (% T/C) (B16 melanoma; 1 mg/kg/day): 121 % T/C
- MST (% T/C) (B16 melanoma; 2 mg/kg/day): 139 % T/C
- MST (% T/C) (B16 melanoma; 4 mg/kg/day): 155 % T/C
- MST (% T/C) (B16 melanoma; .25 mg/kg/day): 107 % T/C
- MST (% T/C) (B16 melanoma; .5 mg/kg/day): 113 % T/C
- MST (% T/C) (P388 leukemia; 0.13 mg/kg/day, QD 1→9 ip): 127 % T/C
- MST (% T/C) (P388 leukemia; 0.25 mg/kg/day, QD 1→9 ip): 132 % T/C
- MST (% T/C) (P388 leukemia; 0.5 mg/kg/day, QD 1→9 ip): 145 % T/C
- MST (% T/C) (P388 leukemia; 1 mg/kg/day, QD 1→3 ip): 130 % T/C
- MST (% T/C) (P388 leukemia; 1 mg/kg/day, QD 1→9 ip): 150 % T/C
- MST (% T/C) (P388 leukemia; 2 mg/kg/day, QD 1→9 ip): 159 % T/C
- MST (% T/C) (P388 leukemia; 3 mg/kg/day, QD 1→3 ip): 145 % T/C
- MST (% T/C) (P388 leukemia; 4 mg/kg/day, QD 1→9 ip): 173 % T/C
- MST (% T/C) (P388 leukemia; 10 mg/kg/day, QD 1→3 ip): 155 % T/C

Compound: CCCCCCCCC/C=C/C(=O)N[C@H](C(=O)NC1CC(O)CCNC(=O)/C=C/C(C)NC1=O)[C@@H](C)O (relative stereo) [Example 4, trans-2-Dodecenoyl-III]
- MST (% T/C) (P388 leukemia; 1 mg/kg/day, QD 1→3 ip): 132 % T/C
- MST (% T/C) (P388 leukemia; 3 mg/kg/day, QD 1→3 ip): 118 % T/C
- MST (% T/C) (P388 leukemia; .3 mg/kg/day, QD 1→3 ip): 118 % T/C

Compound: CCCCCCCCCCCCCC(=O)N[C@H](C(=O)NC1CC(O)CCNC(=O)/C=C/C(C)NC1=O)[C@@H](C)O (stereo partly drawn) [Example 3, n-Tetradecanoyl-III]
- LD50 (ddy mice): > 25 mg/kg
- MST (% T/C) (B16 melanoma; 1 mg/kg/day): 116 % T/C
- MST (% T/C) (B16 melanoma; 2 mg/kg/day): 124 % T/C
- MST (% T/C) (B16 melanoma; 4 mg/kg/day): 145 % T/C
- MST (% T/C) (B16 melanoma; .25 mg/kg/day): 113 % T/C
- MST (% T/C) (B16 melanoma; .5 mg/kg/day): 113 % T/C
- MST (% T/C) (P388 leukemia; 0.13 mg/kg/day, QD 1→9 ip): 118 % T/C
- MST (% T/C) (P388 leukemia; 0.25 mg/kg/day, QD 1→9 ip): 132 % T/C
- MST (% T/C) (P388 leukemia; 0.5 mg/kg/day, QD 1→9 ip): 132 % T/C
- MST (% T/C) (P388 leukemia; 1 mg/kg/day, QD 1→3 ip): 127 % T/C
- MST (% T/C) (P388 leukemia; 1 mg/kg/day, QD 1→9 ip): 150 % T/C
- MST (% T/C) (P388 leukemia; 2 mg/kg/day, QD 1→9 ip): 150 % T/C
- MST (% T/C) (P388 leukemia; 3 mg/kg/day, QD 1→3 ip): 132 % T/C
- MST (% T/C) (P388 leukemia; 4 mg/kg/day, QD 1→9 ip): 159 % T/C
- MST (% T/C) (P388 leukemia; 10 mg/kg/day, QD 1→3 ip): 55 % T/C
